{
  "source": "patent US8329862B1",
  "about": "“Cell-killing peptide derived from the C-terminus of NOXA protein” (Chosun University, priority 2004, dated 2012)",
  "molecules": {"B1": {"name": "TRAIL (protein, UniProt P50591 1-281, looked up)", "Tumor necrosis factor ligand …": "MAMMEVQGGPSLGQTCVLIVIFTVLLQSLCVAVTYVYFTNELKQMQDKYSKSGIACFLKEDDSYWDPNDEESMNSPCWQVKWQLRQLVRKMILRTSEETISTVQEKQQNISPLVRERGPQRVAAHITGTRGRSNTLSSPNSKNEKALGRKINSWESSRSGHSFLSNLHLRNGELVIHEKGFYYIYSQTYFRFQEEIKENTKNDKQMVQYIYKYTSYPDPILLMKSARNSCWSKDAEYGLYSIYQGGIFELKENDRIFVSVTNEHLIDMDHEASFFGAFLVG", "notes": "substance known to kill cells, used as comparator"}},
  "format_in_all_cases": "cell-based",
  "key": {"[1]": {"tested_on": "HeLa cell, a cervical cancer cell line", "assay": "Cell-killing effect on HeLa cells, crystal violet staining of attached living cells", "settings": "for cell-killing activity compared with CKP peptide: procedure of Example 2, FIG. 6; for cell-killing activity: procedure of Example 2, crystal violet", "protocol": "In order to examine the cell-killing effect of CKP peptide synthesized in Example 1, HeLa cell, a cervical cancer cell line was adopted and cultivated. The culture medium was replaced with experimental media containing CKP peptide solution in 0, 1, 5, 10, 15, 20, 30, 40 μM of concentration serially and cultivated for more 24 hours. In order to observe living cells attached on the surface, the resulting cells were stained for 10 minutes by using 100 μl of 0.5% crystal violet and then, washed out by using distilled water and running water to be de-stained, while discarding cells floating on the culture medium. Then, cells were observed by photography after placing culture vessel under a fluorescent lamp box as depicted in FIG. 3. At this moment, living cells attached on the surface appeared blue color since they were stained by crystal violet."}, "[2]": {"tested_on": "HeLa cell, a cervical cancer cell line", "assay": "Cell-killing effect on HeLa cells, crystal violet staining of attached living cells", "settings": "pan-caspase inhibitor z-VAD-fmk in culture media, FIG. 11"}, "[3]": {"tested_on": "HeLa cell, a cervical cancer cell line", "assay": "Relative survival ratio of HeLa cells, counted from time-lapse microscopy", "settings": "1 hour", "protocol": "In order to measure the strength of CKP peptide, several substances that are known to kill cells were adopted to compare the cell-killing effects. HeLa cell, a cervical cancer cell line was cultivated and treated with CKP peptide, TRAIL and Cisplatin to 30 μM, 100 ng/ml and 100 μg/ml respectively for 1 hour. After that, the resulting cells were observed under time-lapse video capture microscopy (Leica, Model: DMI RBE, Germany) in 20 seconds of time-interval for 1 hour by the procedure described in Example 5, photographed to 40×, counted for the numbers of living cells and dead cells and then, estimated the relative survival ratio in a graph. […] As a consequence, it is clarified that CKP peptide of the present invention had the strongest cell-killing effect about 9-fold more than TRAIL or Cisplatin."}, "HeLa cell lines": {"tested_on": "HeLa cell lines", "assay": "Time-lapse video capture microscopy of HeLa cell death", "settings": "for morphology of dead HeLa cells: CKP at 23 minutes and 20 seconds, TRAIL at 5 hours and 30 minutes, FIG. 8", "protocol": "In order to analyze the action mode of CKP peptide of the present invention, several substances that are known to kill cells were adopted to compare the cell-killing effects. Above all, CKP peptide (10 μM), TRAIL (100 ng/ml) and Cisplatin (100 μg/ml) were treated to HeLa cell lines and observed under time-lapse video capture microscopy (Leica, Model: DMIRBE, Germany) in some time-interval (for CKP peptide, 20 seconds; TRAIL, 40 seconds; Cisplatin, 3 minutes) for 1 hour and 40 minutes, 3 hours and 30 minutes, 8 hours and 48 hours respectively. Then, the results were photographed to 40× by using FW4000 software. FIG. 7 depicts HeLa cells serially at each time interval. As a result, it is observed that the cell death caused by TRAIL started at about 1 hour and 30 minutes after treatment and reached the maximum level at about 8 hours. To the contrary, HeLa cell started to die at about 10 minutes after treating CKP peptide and most of HeLa cells have died even at 23 minutes and 20 seconds."}},
  "note": "No end group written: not given here.",
  "data": [
    {"molecule": "CKP 4: SEQ ID NO: 7 (RRRRRRRRGRQKLLNLIAALF), substituted in two residues (fusion protein)", "values": [
      {"measurement": "cell-killing activity compared with CKP peptide", "setting": "[1]", "value": "outstanding rather than CKP peptide"}
    ]},
    {"molecule": "PTD domain without CKP domain: only PTD domain without CKP domain, synthesized as in Example 1 (RRRRRRRRG; protein transduction domain) [reference compound]", "values": [
      {"measurement": "cell-killing activity", "setting": "[1]", "value": "not detected at all"}
    ]},
    {"molecule": "CKP 5: SEQ ID NO: 8 (RRRRRRRRGRQKALNLIAALF), substituted in three residues (fusion protein)", "values": [
      {"measurement": "cell-killing activity compared with CKP peptide", "setting": "[1]", "value": "decreased the cell-killing activity slightly"}
    ]},
    {"molecule": "CKP 3: SEQ ID NO: 6 (RRRRRRRRGRQKLAALISKLF), substituted in two residues (fusion protein)", "values": [
      {"measurement": "cell-killing activity compared with CKP peptide", "setting": "[1]", "value": "decreased the cell-killing activity slightly"}
    ]},
    {"molecule": "CKP 8: SEQ ID NO: 11 (RRRRRRRRGRQKLLNLISKAF), 9th leucine substituted to alanine (Fusion protein)", "values": [
      {"measurement": "cell-killing activity compared with CKP peptide", "setting": "[1]", "value": "decreased the cell-killing activity remarkably"}
    ]},
    {"molecule": "CKP 6: SEQ ID NO: 9 (RRRRRRRRGRQKAANLISKLF), 2nd and 3rd leucines substituted to alanine (Fusion protein)", "values": [
      {"measurement": "cell-killing activity compared with CKP peptide", "setting": "[1]", "value": "decreased the cell-killing activity remarkably"}
    ]},
    {"molecule": "Bid(mt)BH3CKP: fusion protein combining CKP peptide with mutant BidBH3 deleting the active site of BH3 domain, SEQ ID NO: 13 (RRRRRRRRGNIARHLAQVADSMDRRQKLLNLISKLF; Fusion protein)", "values": [
      {"measurement": "cell-killing activity", "setting": "[1]", "value": "had the cell-killing activity"}
    ]},
    {"molecule": "BidBH3CKP: fusion protein that combines CKP peptide with BidBH3 peptide, SEQ ID NO: 12 (RRRRRRRRGNIARHLAQVGDSMDRRQKLLNLISKLF; Fusion protein)", "values": [
      {"measurement": "cell-killing activity relative to BidBH3 peptide", "setting": "[1]; procedure of Example 2", "value": 2, "unit": "fold"},
      {"measurement": "difference of cell-killing activity with or without z-VAD-fmk", "setting": "[2]", "value": "not significant difference"}
    ]},
    {"molecule": "CKP 2: SEQ ID NO: 5 (RRRRRRRRGRQKALNLISKLF), substituted in one residue (fusion protein)", "values": [
      {"measurement": "cell-killing activity compared with CKP peptide", "setting": "[1]", "value": "decreased the cell-killing activity slightly"}
    ]},
    {"molecule": "RRRRRRRRGRQKLLNLISKLF [CKP peptide]", "values": [
      {"measurement": "concentration from which cell-killing activity is seen", "setting": "[1]; 0-40 μM, 24 hours, crystal violet, FIG. 3", "value": "≥ 10", "unit": "µM"},
      {"measurement": "cell-killing activity", "setting": "[1]", "value": "became strong remarkably"},
      {"measurement": "cell-killing effect relative to TRAIL or Cisplatin", "setting": "[3]", "value": "about 9 fold"},
      {"measurement": "morphology of dead HeLa cells", "setting": "HeLa cell lines", "value": "several cell membranes like balloon"},
      {"measurement": "time at which HeLa cells started to die after treatment", "setting": "HeLa cell lines; CKP peptide 10 μM", "value": "about 10 minutes"}
    ]},
    {"molecule": "CKP 7: SEQ ID NO: 10 (RRRRRRRRGRQKLLNAISKLF), 5th leucine substituted to alanine (Fusion protein)", "values": [
      {"measurement": "cell-killing activity compared with CKP peptide", "setting": "[1]", "value": "decreased the cell-killing activity remarkably"}
    ]},
    {"molecule": "B1", "values": [
      {"measurement": "morphology of dead HeLa cells", "setting": "HeLa cell lines", "value": "not to have cell membrane like balloon"},
      {"measurement": "time at which cell death reached the maximum level", "setting": "HeLa cell lines; TRAIL 100 ng/ml", "value": "about 8 hours"}
    ]}
  ]
}
